Experimental data from PMC5622107, “Small molecule inhibition of cGAS reduces interferon expression in primary macrophages from autoimmune mice” (Nature Communications, 2017).

Biological target: T1, apo-cGAS (Mus musculus, UniProt Q8C6L5)
T1 construct: full-length (for high-throughput screening) and residues 147–507 (for structural study) of cGAS; His6-SUMO (N, cleaved yes); made in house; host or cells: E. coli BL21(DE3) RIL
Experiment: Isothermal titration calorimetry, cGAS in absence of dsDNA
Assay type: binding
Method: ITC measurements were performed at 25 °C using a MicroCal auto-iTC200 calorimeter (MicroCal, LLC). Purified truncated mouse cGAS was dialyzed against 40 mM HEPES buffer (pH 7.5) and 300 mM NaCl for 24 h at 4 °C. Dialysis led to some precipitation, which were removed through centrifugation followed by collection of the supernatant. The concentration of the protein in supernatant was measured using Pierce® BCA protein assay. The protein was flash frozen in liquid N2 and stored at −80 °C. For the ITC assay, the dialyzed protein was prediluted to 20 µM in the dialysis buffer and diluted to a final concentration of 10 µM in a final buffer containing 40 mM HEPES, 1% DMSO, 150 mM NaCl, 0.01% Tween-20 and + /− dsDNA 10 µM and + /− ATP or GTP 1 mM. Then, 2 μl RU.365 100 µM, dissolved in the buffer aforementioned, were injected into 0.2 ml of protein in the chamber every 150 s. Data for raw ITC and thermodynamic curves, each from one experiment, were downloaded after analysis using Affinimeter software and plotted using GraphPad Prism (7.01). The software calculates error bars as an indication of the contribution of the raw data noise that is determined from the integral of the standard deviation of the baseline during the injection.

T1 sequence (Q8C6L5 147-507): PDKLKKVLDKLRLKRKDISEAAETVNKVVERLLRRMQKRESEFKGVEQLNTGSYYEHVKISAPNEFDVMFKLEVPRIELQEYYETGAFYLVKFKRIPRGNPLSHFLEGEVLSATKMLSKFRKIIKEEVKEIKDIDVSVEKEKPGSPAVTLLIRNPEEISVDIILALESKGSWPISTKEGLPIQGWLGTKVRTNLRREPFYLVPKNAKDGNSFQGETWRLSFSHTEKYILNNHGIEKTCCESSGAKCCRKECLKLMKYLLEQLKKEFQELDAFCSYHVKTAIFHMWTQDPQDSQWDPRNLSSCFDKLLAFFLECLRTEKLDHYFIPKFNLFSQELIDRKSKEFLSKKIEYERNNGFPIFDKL

`Cc1nn(-c2nc3ccccc3[nH]2)c(O)c1C1OC(=O)c2ccccc21` (centres unmarked) [RU166365] was tested, and the Kd was 98.5 nM, the “T*ΔS” value was -1.511 kcal/mol and the rM was 0.9384. The ΔG was -9.559 kcal/mol and the ΔH was -11.07 kcal/mol.
